The source of these data is PMC4695389, “Non-classical amine recognition evolved in a large clade of olfactory receptors” (eLife, 2015).

One test concerns the target zebrafish TAAR16c (Danio rerio, UniProt A0AC58H3H2, N266T). Format: cell-based.
For another test, the target named is T1, zebrafish TAAR10a (Danio rerio, UniProt Q5QNP6, I156V/V182I).
T1 sequence (Q5QNP6 1-336 I156V/V182I): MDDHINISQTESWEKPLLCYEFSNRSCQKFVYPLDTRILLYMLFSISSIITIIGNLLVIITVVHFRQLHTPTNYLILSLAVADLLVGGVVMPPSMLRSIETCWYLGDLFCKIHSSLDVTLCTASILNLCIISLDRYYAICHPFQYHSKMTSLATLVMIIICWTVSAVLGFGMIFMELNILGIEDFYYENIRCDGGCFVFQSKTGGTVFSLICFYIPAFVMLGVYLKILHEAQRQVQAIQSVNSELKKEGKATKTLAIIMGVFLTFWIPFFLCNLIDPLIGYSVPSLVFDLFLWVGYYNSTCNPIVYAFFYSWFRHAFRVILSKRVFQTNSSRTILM
The test can be described thus: cell-based. Conditions: HEK-293 cells, Cre-Seap reporter.

The next test deals with T2, TAAR10b (Danio rerio, UniProt Q5QNN3, A166T/H113R/V182I/V259M).
T2 sequence (Q5QNN3 1-336 H113R/A166T/V182I/V259M): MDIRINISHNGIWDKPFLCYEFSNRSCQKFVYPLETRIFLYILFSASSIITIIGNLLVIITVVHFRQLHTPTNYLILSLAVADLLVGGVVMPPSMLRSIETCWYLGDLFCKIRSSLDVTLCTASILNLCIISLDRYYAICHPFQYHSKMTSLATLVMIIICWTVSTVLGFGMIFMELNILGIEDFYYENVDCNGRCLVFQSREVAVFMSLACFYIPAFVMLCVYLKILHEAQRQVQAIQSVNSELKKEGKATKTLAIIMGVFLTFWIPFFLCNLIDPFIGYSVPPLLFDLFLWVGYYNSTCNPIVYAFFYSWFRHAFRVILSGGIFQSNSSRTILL
The test is described as follows: Cre-Seap reporter gene assay, TAAR10b in Hana3A cells. It counts as cell-based, zebrafish.

The next test has as its target T3, zebrafish TAAR16f (Danio rerio, UniProt A0AC58GNM0, L317F/N20S/N8I/T68S, form not given).
T3 sequence (A0AC58GNM0 1-331 N8I/N20S/T68S/L317F): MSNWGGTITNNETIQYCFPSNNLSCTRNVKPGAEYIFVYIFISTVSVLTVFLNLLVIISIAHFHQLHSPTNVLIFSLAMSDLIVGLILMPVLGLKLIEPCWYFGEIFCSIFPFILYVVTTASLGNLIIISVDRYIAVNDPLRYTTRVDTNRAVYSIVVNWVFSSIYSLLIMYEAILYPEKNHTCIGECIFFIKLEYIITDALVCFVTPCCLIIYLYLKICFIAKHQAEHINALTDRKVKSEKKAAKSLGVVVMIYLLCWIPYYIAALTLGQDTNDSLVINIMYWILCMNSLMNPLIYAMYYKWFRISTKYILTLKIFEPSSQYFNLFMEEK
It counts as cell-based. Conditions: for EC50: HEK-293 cells, Cre-Seap reporter.

A further test relates to goldfish. More on the design: method as in Rolen, et al., 2003; Hara, 2006. Conditions: ref Rolen, et al., 2003, Hara, 2006; cited from earlier work.
A further test deals with T4, zebrafish TAAR13e (Danio rerio, UniProt Q5QNP8, I215V/V266I).
T4 sequence (Q5QNP8 1-341 I215V/V266I): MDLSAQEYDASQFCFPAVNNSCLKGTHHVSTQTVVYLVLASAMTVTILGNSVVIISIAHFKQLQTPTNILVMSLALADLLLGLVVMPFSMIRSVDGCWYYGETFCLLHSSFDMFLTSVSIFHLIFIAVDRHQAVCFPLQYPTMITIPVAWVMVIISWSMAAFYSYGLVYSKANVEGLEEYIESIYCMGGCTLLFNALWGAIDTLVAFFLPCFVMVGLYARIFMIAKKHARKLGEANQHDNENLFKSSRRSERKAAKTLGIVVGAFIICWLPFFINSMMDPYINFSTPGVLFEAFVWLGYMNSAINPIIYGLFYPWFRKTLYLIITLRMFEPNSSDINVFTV
The test is described as follows: cell-based. Conditions: HEK-293 cells, Cre-Seap reporter.

The target in the next test is T5, zebrafish TAAR14d (Danio rerio, UniProt U3JB35).
T5 sequence (U3JB35 1-328): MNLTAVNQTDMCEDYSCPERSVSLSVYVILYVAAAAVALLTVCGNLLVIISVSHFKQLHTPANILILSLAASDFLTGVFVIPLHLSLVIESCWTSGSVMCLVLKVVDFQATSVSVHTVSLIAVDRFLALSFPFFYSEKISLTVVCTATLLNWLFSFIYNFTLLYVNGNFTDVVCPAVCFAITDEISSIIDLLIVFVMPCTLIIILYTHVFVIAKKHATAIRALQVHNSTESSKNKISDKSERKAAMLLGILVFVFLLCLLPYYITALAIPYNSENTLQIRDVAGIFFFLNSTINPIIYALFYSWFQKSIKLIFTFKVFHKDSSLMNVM
The test can be described thus: cell-based. Conditions: HEK-293 cells, Cre-Seap reporter.

Another test deals with T6, zebrafish TAAR13c (Danio rerio, UniProt Q5QNP2).
T6 construct: expressed in transfected cells; host or cells: HEK-293
T6 sequence (Q5QNP2 1-341): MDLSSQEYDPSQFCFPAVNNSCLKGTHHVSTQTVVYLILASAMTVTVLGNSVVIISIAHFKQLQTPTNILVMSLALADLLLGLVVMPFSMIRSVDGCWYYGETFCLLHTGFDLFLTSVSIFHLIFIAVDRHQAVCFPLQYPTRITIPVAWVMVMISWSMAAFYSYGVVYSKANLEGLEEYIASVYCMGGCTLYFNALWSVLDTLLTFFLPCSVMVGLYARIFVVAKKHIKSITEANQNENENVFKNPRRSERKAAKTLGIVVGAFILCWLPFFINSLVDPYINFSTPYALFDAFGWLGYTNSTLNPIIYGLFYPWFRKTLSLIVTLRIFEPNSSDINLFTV
The test can be described thus: cell-based.

A further test has as its system zebrafish. The arrangement: method as in Hussain et al., 2013. Conditions: ref Hussain et al., 2013; cited from earlier work.
In a further test the target is T7, TAAR13c^D112A (Danio rerio, UniProt Q5QNP2, D112A).
T7 construct: expressed in transfected cells; host or cells: HEK-293
T7 sequence (Q5QNP2 1-341 D112A): T6 sequence (Q5QNP2 1-341) with D112A
Format: cell-based. Conditions: any concentration tested, up to 1 mM.

The target of another test is T8, TAAR12i (Danio rerio, UniProt Q5QNN0, F195V/V105Y/V8A).
T8 sequence (Q5QNN0 1-340 V8A/V105Y/F195V): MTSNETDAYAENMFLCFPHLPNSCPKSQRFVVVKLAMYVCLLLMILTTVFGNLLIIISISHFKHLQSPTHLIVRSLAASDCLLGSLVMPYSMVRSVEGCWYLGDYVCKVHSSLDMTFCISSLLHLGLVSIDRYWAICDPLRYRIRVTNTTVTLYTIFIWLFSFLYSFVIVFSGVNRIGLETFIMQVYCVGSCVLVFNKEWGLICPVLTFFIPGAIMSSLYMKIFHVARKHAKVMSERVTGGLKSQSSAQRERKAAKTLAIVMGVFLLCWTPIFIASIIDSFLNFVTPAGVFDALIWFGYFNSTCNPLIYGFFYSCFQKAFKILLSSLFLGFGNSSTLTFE
The test is described as follows: Cre-Seap reporter gene assay, TAAR12i in Hana3A cells. It counts as cell-based, zebrafish.

The next test relates to TAAR16f D^5.42A mutant. The test is described as follows: Cre-Seap reporter gene assay, TAAR16f D^5.42A mutant. Format: cell-based, zebrafish.
For the next test, the system named is TAAR16c D^5.42A mutant. The test is described as follows: Cre-Seap reporter gene assay, TAAR16c D^5.42A mutant. Format: cell-based, zebrafish.
Another test concerns the target zebrafish TAAR13d (Danio rerio, UniProt Q5QNQ1, I38V/T66P/V128I/V187I). The test can be described thus: cell-based. The settings on record: for EC50: HEK-293 cells, Cre-Seap reporter.
For a further test, the target named is zebrafish TAAR13a (Danio rerio, UniProt Q5QNP9, F294L/F316L/I267M/N226K/T142R). The test can be described thus: cell-based. The settings on record: HEK-293 cells, Cre-Seap reporter.

Residue numbers refer to the chain shown, from its start. “And” between values parts separate entries of the source, which are not always exact repeats. Equal values may be shown once. “Also recorded” adds a separate entry of the source. Read-outs that look alike come from different tables or passages of the source.

Sequence of zebrafish TAAR16c (A0AC58H3H2 entry or part of it N266T): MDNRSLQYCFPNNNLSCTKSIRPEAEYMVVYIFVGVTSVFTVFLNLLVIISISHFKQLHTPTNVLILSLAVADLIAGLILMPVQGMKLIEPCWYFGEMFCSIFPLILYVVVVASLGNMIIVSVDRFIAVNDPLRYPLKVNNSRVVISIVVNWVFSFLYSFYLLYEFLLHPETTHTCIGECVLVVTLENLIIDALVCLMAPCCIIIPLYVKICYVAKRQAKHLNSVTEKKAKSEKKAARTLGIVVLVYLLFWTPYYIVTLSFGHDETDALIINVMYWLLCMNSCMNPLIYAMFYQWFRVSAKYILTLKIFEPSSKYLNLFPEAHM
Sequence of zebrafish TAAR13d (Q5QNQ1 entry or part of it I38V/T66P/V128I/V187I): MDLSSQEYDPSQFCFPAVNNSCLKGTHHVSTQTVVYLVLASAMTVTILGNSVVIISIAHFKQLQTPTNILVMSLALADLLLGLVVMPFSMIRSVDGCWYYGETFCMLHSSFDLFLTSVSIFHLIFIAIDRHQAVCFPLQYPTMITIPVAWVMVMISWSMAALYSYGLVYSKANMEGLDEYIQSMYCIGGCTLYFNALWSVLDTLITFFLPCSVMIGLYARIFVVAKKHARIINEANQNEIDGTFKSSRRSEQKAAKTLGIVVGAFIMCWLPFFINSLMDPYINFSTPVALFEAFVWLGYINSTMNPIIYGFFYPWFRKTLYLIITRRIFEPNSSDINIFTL
Sequence of zebrafish TAAR13a (Q5QNP9 1-341 T142R/N226K/I267M/F294L/F316L): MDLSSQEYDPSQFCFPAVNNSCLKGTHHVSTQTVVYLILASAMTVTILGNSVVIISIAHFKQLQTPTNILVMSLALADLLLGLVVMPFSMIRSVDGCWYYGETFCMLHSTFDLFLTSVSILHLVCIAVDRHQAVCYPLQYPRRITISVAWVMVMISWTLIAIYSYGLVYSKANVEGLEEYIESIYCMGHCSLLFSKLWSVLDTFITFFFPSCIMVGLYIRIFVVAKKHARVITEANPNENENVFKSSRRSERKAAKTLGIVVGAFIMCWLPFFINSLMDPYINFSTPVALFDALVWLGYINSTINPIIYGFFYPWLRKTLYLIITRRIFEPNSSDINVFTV

As to `C1CCOC1` [tetrahydrofuran], the “agonism of TAAR16c” value on zebrafish TAAR16c was “did not activate”. `COc1ccc2[nH]cc(CCN)c2c1` [5-methoxytryptamine] showed an EC50 on zebrafish TAAR10a (EC50, TAAR10a) of around 20 µM. On to `C1CCNC1` [pyrrolidine], for which the “agonism of TAAR16c” value on zebrafish TAAR16c (any concentration tested) is “partial agonists”. For the compound `NCCc1c[nH]c2ccccc12` [tryptamine], the EC50 at zebrafish TAAR10a (read-out: EC50, TAAR10a) was around 70 µM; on TAAR10b, 50 µM. Consider `CC(C)CCO` [isoamyl alcohol], for which, on zebrafish TAAR16f, the “detection by TAAR16f” value was “failed to detect” and the “recognition by TAAR16f at 1 mM” value is listed as “not”. Regarding `NCCCCN=C(N)N` [Agmatine], the feeding-associated pecking behavior entry in the test with goldfish is “increase feeding-associated pecking behavior”. Besides, the EC50 at zebrafish TAAR13e was ~1 µM and 1 µM; on zebrafish TAAR14d, ~100 µM and 100 µM. `NCCCCCN` [cadaverine]: in the test on goldfish, the feeding-associated pecking behavior entry is “increase feeding-associated pecking behavior”. Also, the EC50 on zebrafish TAAR13c (HEK-293 cells, Cre-Seap reporter, read-out: EC50 (half maximal response), TAAR13c) is ~10 µM and 10 µM. The avoidance behavior result in the test with zebrafish is “evoke avoidance behavior”. At TAAR13c^D112A, the “activation of TAAR13c D112A mutant” value is reported as “abrogates cadaverine responsiveness; also recorded: failed to activate”.

`COc1cc(CCN)ccc1O` [3-methoxytyramine]: at zebrafish TAAR13c (any concentration tested), the “activation of wild type TAAR13c” value was “failed to activate”. Moreover, the EC50 on TAAR12i is 100 µM. `CC(C)CCN` [isoamylamine]: the “response of TAAR16f with charge-neutralizing mutation of Asp^5.42” value with TAAR16f D^5.42A mutant is given as “completely eliminated responses”. Also, the “recognition by TAAR16f at 1 mM” value at zebrafish TAAR16f (1 mM) is listed as “recognizes”. Further, the values for the EC50 at zebrafish TAAR16f and at zebrafish TAAR16f (listed as Isoamylamine) were around 200 µM and 200 µM, respectively. With `CN1CCCCC1` [N-methylpiperidine], the “response of TAAR16c with charge-neutralizing mutation of Asp^5.42” value in the test with TAAR16c D^5.42A mutant was “completely eliminated responses”. Turning to `NCCCCN` [putrescine], the EC50 on zebrafish TAAR13d was ~1 µM and 1 µM. Also, the feeding-associated pecking behavior entry in the test with goldfish is recorded as “increase feeding-associated pecking behavior”. The avoidance behavior entry in the test on zebrafish is given as “evoke avoidance behavior”. As to `NCCc1c[nH]cn1` [Histamine], the EC50 on zebrafish TAAR13a is ~20 µM and 20 µM; at zebrafish TAAR13d, around 7 µM. For the compound `NCCCN` [diaminopropane], the “reduced sensitivity of TAAR13d relative to putrescine” value at zebrafish TAAR13d (compared with putrescine) was ~ 3,000 fold. Consider `NCCc1c[nH]c2ccc(O)cc12` [serotonin], for which the EC50 on zebrafish TAAR10a (read-out: EC50, TAAR10a) is ~0.5 µM and 0.5 µM.

Take `C1CCNCC1` [piperidine]: the “agonism of TAAR16c” value at zebrafish TAAR16c is given as “partial agonists”.
